Laboratory results as given in patent US4231928A, “Antibacterial agents” (priority 1979, dated 1980).
Where two headings read alike, the source gives them in different places.

Legend:
Assay type in all cases: cell-based
S. aureus = test: Serial twofold agar dilution (Mueller-Hinton agar), S. aureus; conditions: Staphylococcus aureus
Experimental: (§1) The Minimum Inhibitory Concentrations (MIC) for sodium 6-[D-(-)-α-phenyl-α-(7-hydroxy-4-oxo-4H-pyrimido[1,2-b]pyridazin-3-ylcarboxamido)acetamido]penicillanate (BB-P598) and sulbenicillin were determined by the serial twofold agar dilution method using Steers' apparatus on Mueller-Hinton agar plates against 31 test organisms for the primary screening (Table 1) and also against 61 strains of Pseudomonas aeruginosa for the secondary evaluation (Table 2).
(§2) Minimum Inhibitory Concentrations (MIC) for sodium 6-[D-(-)-α-phenyl-α-(7-hydroxy-4-oxo-4H-pyrimido[1,2-b]pyridazin-3-ylcarboxamido)acetamido]pencillanate (BB-P598), sodium 6-[D-(-)-α-(4-hydroxyphenyl)-α-(7-hydroxy-4-oxo-4H-pyrimido[1,2-b]pyridazin-3-ylcarboxamido)acetamido]-penicillanate (BB-P642) and carbenicillin were determined by the serial twofold agar dilution method using Steers' apparatus on Mueller-Hinton agar plates against 31 tests organisms (Table 8) and also against 61 strains of Pseudomonas aeruginosa (Table 9). In terms of mean % relative activity compared with carbenicillin, compounds BB-B598 and BB-P642 were 856% and 1319% as active as carbenicillin against the 61 Pseudomonas strains of Table 9.

E. coli = test: Serial twofold agar dilution (Mueller-Hinton agar), E. coli; conditions: Escherichia coli
Experimental: as §1, §2

K. pneumoniae = test: Serial twofold agar dilution (Mueller-Hinton agar), K. pneumoniae
Experimental: as §1, §2

Klebsiella sp. = test: Serial twofold agar dilution (Mueller-Hinton agar), Klebsiella sp.; conditions: Klebsiella sp. A20452, Mueller-Hinton agar
Experimental: as §1, §2

E. cloacae = test: Serial twofold agar dilution (Mueller-Hinton agar), E. cloacae; conditions: Enterobacter cloacae
Experimental: as §1, §2

P. mirabilis = test: Serial twofold agar dilution (Mueller-Hinton agar), P. mirabilis; conditions: Proteus mirabilis, P. mirabilis A9900, Mueller-Hinton agar, read-out: MIC
Experimental: as §1, §2

P. vulgaris = test: Serial twofold agar dilution (Mueller-Hinton agar), P. vulgaris
Experimental: as §1, §2

P. morganii = test: Serial twofold agar dilution (Mueller-Hinton agar), P. morganii
Experimental: as §1, §2

S. enteritidis = test: Serial twofold agar dilution (Mueller-Hinton agar), S. enteritidis
Experimental: as §1, §2

S. marcescens = test: Serial twofold agar dilution (Mueller-Hinton agar), S. marcescens; conditions: Serratia marcescens
Experimental: as §1, §2

Pseudomonas aeruginosa = test: Serial twofold agar dilution (Mueller-Hinton agar), P. aeruginosa; conditions: for MIC: Pseudomonas aeruginosa
Experimental: as §1, §2

`CC1(C)S[C@@H]2[C@H](NC(=O)[C@H](NC(=O)c3cnc4ccc(O)nn4c3=O)c3ccccc3)C(=O)N2[C@H]1C(=O)O` [BB-P598, sodium 6-[D-(-)-α-phenyl-α-(7-hydroxy-4-oxo-4H-pyrimido[1,2-b]pyridazin-3-ylcarboxamido)acetamido]penicillanate] showed an MIC (S. aureus; S. aureus A15097, Table 8, read-out: MIC) greater than 100 µg/mL, an MIC (S. aureus; S. aureus A20239, Table 8, read-out: MIC) of 25 µg/mL and an MIC (S. aureus; S. aureus A20240, Table 8, read-out: MIC) of 12.5 µg/mL. The MIC (S. aureus; S. aureus A20701, Table 8, read-out: MIC) was greater than 100 µg/mL, the MIC (S. aureus; S. aureus BX-1633 A9606, Table 1, read-out: MIC) was 6.3 µg/mL and the MIC (S. aureus; S. aureus BX-1633 A9606, Table 8, read-out: MIC) was 50 µg/mL. It also gave an MIC (S. aureus; S. aureus BX-1633 A15097, Table 1, read-out: MIC) of 100 µg/mL, an MIC (S. aureus; S. aureus BX-1633 A20240, Table 1, read-out: MIC) of 6.3 µg/mL and an MIC (S. aureus; S. aureus BX-1633 A20701, Table 1, read-out: MIC) greater than 100 µg/mL. The MIC (S. aureus; S. aureus Smith A9537, Table 1, read-out: MIC) was 1.6 µg/mL, the MIC (S. aureus; S. aureus Smith A9537, Table 8, read-out: MIC) was 1.6 µg/mL and the MIC (S. aureus; S. aureus Smith A20239, Table 1) was 25 µg/mL. The MIC (E. coli; E. coli A9635, Table 8, read-out: MIC) was 12.5 µg/mL, the MIC (E. coli; E. coli A9844, Table 8, read-out: MIC) was 6.3 µg/mL and the MIC (E. coli; E. coli A20366, Table 8, read-out: MIC) was greater than 100 µg/mL. For the same compound, the MIC (E. coli; E. coli A20520, Table 8, read-out: MIC) was 3.1 µg/mL, the MIC (E. coli; E. coli A20664, Table 8, read-out: MIC) was 0.8 µg/mL and the MIC (E. coli; E. coli A20732, Table 8, read-out: MIC) was 50 µg/mL. It also gave an MIC (E. coli; E. coli A20898, Table 8, read-out: MIC) greater than 100 µg/mL, an MIC (E. coli; E. coli Juhl A9435, Table 1) of 12.5 µg/mL and an MIC (E. coli; E. coli Juhl A9844, Table 1, read-out: MIC) of 3.1 µg/mL. It also gave an MIC (E. coli; E. coli Juhl A15119, Table 1, read-out: MIC) of 12.5 µg/mL, an MIC (E. coli; E. coli Juhl A15119, Table 8, read-out: MIC) of 12.5 µg/mL and an MIC (E. coli; E. coli Juhl A20366, Table 1, read-out: MIC) greater than 100 µg/mL. The MIC (E. coli; E. coli Juhl A20520, Table 1, read-out: MIC) was 1.6 µg/mL, the MIC (E. coli; E. coli Juhl A20664, Table 1, read-out: MIC) was 0.8 µg/mL and the MIC (E. coli; E. coli Juhl A20732, Table 1, read-out: MIC) was 100 µg/mL. It also gave an MIC (E. coli; E. coli Juhl A20898, Table 1, read-out: MIC) greater than 100 µg/mL, an MIC (E. coli; E. coli NIHJ, Table 1, read-out: MIC) of 0.8 µg/mL and an MIC (E. coli; E. coli NIHJ, Table 8, read-out: MIC) of 3.1 µg/mL. It also gave an MIC (K. pneumoniae; K. pneumoniae A9977, Table 1) of 12.5 µg/mL, an MIC (K. pneumoniae; Klebsiella pneumoniae, K. pneumoniae A9977, Table 8, read-out: MIC) of 12.5 µg/mL and an MIC (Klebsiella sp.; Table 1, read-out: MIC) of 25 µg/mL. For the same compound, the MIC (Klebsiella sp.; Table 8, read-out: MIC) was 12.5 µg/mL, the MIC (E. cloacae; E. cloacae A9656, Table 1) was 25 µg/mL and the MIC (E. cloacae; E. cloacae A9656, Table 8) was 25 µg/mL. The MIC (E. cloacae; E. cloacae A9657, Table 1) was 50 µg/mL, the MIC (E. cloacae; E. cloacae A9657, Table 8) was 100 µg/mL and the MIC (E. cloacae; E. cloacae A9659, Table 1) was 25 µg/mL. For the same compound, the MIC (E. cloacae; E. cloacae A9659, Table 8) was 25 µg/mL, the MIC (P. mirabilis; Table 1) was 0.2 µg/mL and the MIC (P. mirabilis; Table 8) was 6.3 µg/mL. The MIC (P. vulgaris; P. vulgaris A9539, Table 1) was 25 µg/mL, the MIC (P. vulgaris; Proteus vulgaris, P. vulgaris A9539, Table 8, read-out: MIC) was 25 µg/mL and the MIC (P. morganii; Morganella morganii, P. morganii A9553, Table 8, read-out: MIC) was greater than 100 µg/mL. The MIC (P. morganii; P. morganii A9553, Table 1) was greater than 100 µg/mL, the MIC (S. enteritidis; S. enteritidis A9531, Table 1) was 6.3 µg/mL and the MIC (S. enteritidis; Salmonella enterica, S. enteritidis A9531, Table 8, read-out: MIC) was 6.3 µg/mL. The MIC (S. marcescens; S. marcescens A20019, Table 1) was 100 µg/mL, the MIC (S. marcescens; S. marcescens A20019, Table 8) was 50 µg/mL and the “Mean % relative activity (sulbenicillin = 100%)” value (Pseudomonas aeruginosa; 61 strains of P. aeruginosa, Table 2) was 756%. The “Mean % relative activity compared with carbenicillin” value (Pseudomonas aeruginosa; 61 strains of P. aeruginosa, Table 9) was 856%, the MIC (Pseudomonas aeruginosa; 61 strains of P. aeruginosa, Table 2, read-out: Geometric mean of MIC) was 4.2 µg/mL and the MIC (Pseudomonas aeruginosa; 61 strains of P. aeruginosa, Table 9, read-out: Geometric mean of MIC) was 3.5 µg/mL. The MIC (Pseudomonas aeruginosa; ATCC19660, Pa-14 ATCC 19660 A20325, Mueller-Hinton agar, Table 9, read-out: MIC) was 6.3 µg/mL, the MIC (Pseudomonas aeruginosa; GN315, Pa-27 GN315 A21294, Mueller-Hinton agar, Table 2, read-out: MIC) was 3.1 µg/mL and the MIC (Pseudomonas aeruginosa; GN315, Pa-27 GN315 A21294, Mueller-Hinton agar, Table 9, read-out: MIC) was 1.6 µg/mL. It also gave an MIC (Pseudomonas aeruginosa; GN4925, Pa-45 GN4925, Mueller-Hinton agar, Table 2, read-out: MIC) of 6.3 µg/mL, an MIC (Pseudomonas aeruginosa; GN4925, Pa-45 GN 4925, Mueller-Hinton agar, Table 9, read-out: MIC) of 6.3 µg/mL and an MIC (Pseudomonas aeruginosa; P. aeruginosa A9843, Mueller-Hinton agar, Table 1, read-out: MIC) of 3.1 µg/mL. The MIC (Pseudomonas aeruginosa; P. aeruginosa A9843, Mueller-Hinton agar, Table 8, read-out: MIC) was 3.1 µg/mL, the MIC (Pseudomonas aeruginosa; P. aeruginosa A9930, Mueller-Hinton agar, Table 1, read-out: MIC) was 1.6 µg/mL and the MIC (Pseudomonas aeruginosa; P. aeruginosa A9930, Mueller-Hinton agar, Table 8, read-out: MIC) was 1.6 µg/mL. The MIC (Pseudomonas aeruginosa; P. aeruginosa A15150, Mueller-Hinton agar, Table 1, read-out: MIC) was 0.8 µg/mL, the MIC (Pseudomonas aeruginosa; P. aeruginosa A15150, Mueller-Hinton agar, Table 8, read-out: MIC) was 1.6 µg/mL and the MIC (Pseudomonas aeruginosa; P. aeruginosa A20229, Mueller-Hinton agar, Table 1, read-out: MIC) was 1.6 µg/mL. The MIC (Pseudomonas aeruginosa; P. aeruginosa A20717, Mueller-Hinton agar, Table 1, read-out: MIC) was 6.3 µg/mL, the MIC (Pseudomonas aeruginosa; P. aeruginosa A20717, Mueller-Hinton agar, Table 8, read-out: MIC) was 6.3 µg/mL and the MIC (Pseudomonas aeruginosa; Pa-1 D15, Mueller-Hinton agar, Table 2, read-out: MIC) was 6.3 µg/mL. The MIC (Pseudomonas aeruginosa; Pa-1 D15, Mueller-Hinton agar, Table 9, read-out: MIC) was 6.3 µg/mL, the MIC (Pseudomonas aeruginosa; Pa-2 V.A A9923, Mueller-Hinton agar, Table 9, read-out: MIC) was 3.1 µg/mL and the MIC (Pseudomonas aeruginosa; Pa-2 VA A9923, Mueller-Hinton agar, Table 2, read-out: MIC) was 3.1 µg/mL. The MIC (Pseudomonas aeruginosa; Pa-3 1449 V.A A9930, Mueller-Hinton agar, Table 9, read-out: MIC) was 3.1 µg/mL, the MIC (Pseudomonas aeruginosa; Pa-3 1449VA A9930, Mueller-Hinton agar, Table 2, read-out: MIC) was 1.6 µg/mL and the MIC (Pseudomonas aeruginosa; Pa-4 H9, D113 A21295, Mueller-Hinton agar, Table 9, read-out: MIC) was 3.1 µg/mL. The MIC (Pseudomonas aeruginosa; Pa-4 H9 D113 A21295, Mueller-Hinton agar, Table 2, read-out: MIC) was 6.3 µg/mL, the MIC (Pseudomonas aeruginosa; Pa-5 M4865, K.C A15150, Mueller-Hinton agar, Table 9, read-out: MIC) was 1.6 µg/mL and the MIC (Pseudomonas aeruginosa; Pa-5 M4865KC A15150, Mueller-Hinton agar, Table 2, read-out: MIC) was 3.1 µg/mL. It also gave an MIC (Pseudomonas aeruginosa; Pa-6 No. 5 A15194, Mueller-Hinton agar, Table 2, read-out: MIC) of 25 µg/mL, an MIC (Pseudomonas aeruginosa; Pa-6 No. 5 Levitan A15194, Mueller-Hinton agar, Table 9, read-out: MIC) of 12.5 µg/mL and an MIC (Pseudomonas aeruginosa; Pa-7 A9843, Mueller-Hinton agar, Table 2, read-out: MIC) of 6.3 µg/mL. The MIC (Pseudomonas aeruginosa; Pa-10 A20479, Mueller-Hinton agar, Table 2, read-out: MIC) was greater than 100 µg/mL, the MIC (Pseudomonas aeruginosa; Pa-10 A21479, Mueller-Hinton agar, Table 9, read-out: MIC) was 100 µg/mL and the MIC (Pseudomonas aeruginosa; Pa-11 A20616, Mueller-Hinton agar, Table 2, read-out: MIC) was 3.1 µg/mL. The MIC (Pseudomonas aeruginosa; Pa-11 A20616, Mueller-Hinton agar, Table 9, read-out: MIC) was 6.3 µg/mL, the MIC (Pseudomonas aeruginosa; Pa-12 A20653, Mueller-Hinton agar, Table 2, read-out: MIC) was 6.3 µg/mL and the MIC (Pseudomonas aeruginosa; Pa-12 A20653, Mueller-Hinton agar, Table 9, read-out: MIC) was 6.3 µg/mL. For the same compound, the MIC (Pseudomonas aeruginosa; Pa-14 A20325, Mueller-Hinton agar, Table 2, read-out: MIC) was 3.1 µg/mL, the MIC (Pseudomonas aeruginosa; Pa-15 A20717, Mueller-Hinton agar, Table 2, read-out: MIC) was 6.3 µg/mL and the MIC (Pseudomonas aeruginosa; Pa-15 A20717, Mueller-Hinton agar, Table 9, read-out: MIC) was 12.5 µg/mL. For the same compound, the MIC (Pseudomonas aeruginosa; Pa-16 #130 A20718, Mueller-Hinton agar, Table 2, read-out: MIC) was 0.8 µg/mL and the MIC (Pseudomonas aeruginosa; Pa-16 #130 A20718, Mueller-Hinton agar, Table 9, read-out: MIC) was 0.4 µg/mL.
